From PMC4754833, “Rilpivirine analogs potently inhibit drug-resistant HIV-1 mutants” (Retrovirology, 2016)

What was measured:
HIV-1 RT mutant E138K = experiment: single round infection assay, E138K; format: cell-based; conditions: for fold-change of IC50 of the mutant relative to WT: E138K vs WT; for IC50: ± SD, n=4
Procedure: (§1) The human osteosarcoma cell line, HOS, was obtained from Dr. Richard Schwartz (Michigan State University, East Lansing, MI) and grown in Dulbecco’s modified Eagle’s medium (Invitrogen, Carlsbad, CA) supplemented with 5 % (v/v) fetal bovine serum, 5 % newborn calf serum, and penicillin (50 units/ml) plus streptomycin (50 µg/ml; Quality Biological, Gaithersburg, MD). Virion production and single-round infectivity assays were used to determine antiviral activity (IC50 values) of the compounds as previously described.
(§2) pNLNgoMIVR-ΔEnv.LUC has been described previously. The RT open reading frame was removed from pNLNgoMIVR-ΔEnv.LUC (digestion with SpeI and SalI) and inserted between the SpeI and SalI sites of pBluescript II KS+. Using that construct as the wild-type template, we prepared the following HIV-1 RT mutants using the QuikChange II XL (Stratagene, La Jolla, CA) site-directed mutagenesis protocol kit: L100I, K103N, Y181C, Y188L, H221Y, K103N/Y181C, G190A, G190S, M230L, P236L, L100I/K103N, K103N/P225H, V106A/G190A/F227L, V106A, L234I, V106A/F227L, V106A/L234I, V106A/F227L/L234I, E40K, D67E, K101E, V111A, E138K, M184I, M184V, K101E/M184I, K101E/M184V, E138K/M184I, E138K/M184V, K101P, Y181I, and K101P/V179I. The following sense oligonucleotides were used with matching cognate antisense oligonucleotides (not shown) (Integrated DNA Technologies, Coralville, IA) in the mutagenesis: L100I, 5′-[…]-3′; L100I 2-103, 5′-[…]-3′; K103N, 5′-[…]-3′; Y181C, 5′-[…]-3′; Y188L, 5′-[…]-3′; H221Y, 5′-[…]-3′; G190A, 5′-[…]-3′; G190S, 5′-[…]-3′; P225H, 5′-[…]-3′; F227, 5′-[…]-3′; M230L, 5′-[…]-3′; P236L, 5′-[…]-3′; V106A, 5′-[…]-3′; L234I, 5′-[…]-3′; E40K, 5′-[…]-3′; D67E, 5′-[…]-3′; K101E, 5′-[…]-3′; V111A, 5′-[…]-3′; E138K, 5′-[…]-3′; M184I, 5′-[…]-3′; M184V, 5′-[…]-3′; K101P, 5′-[…]-3′; Y181I, 5′-[…]-3′; K101P/V179I, 5′-[…]-3′. The double mutants K103N/Y181C, K103N/P225H, and L100I/K103N were made using the previously generated K103N mutant and the appropriate oligonucleotides to add the second mutation, Y181C, P225, and L100I respectively. The double mutants V106A/F227L and V106A/L234I were prepared using the previously generated V106A mutant and the appropriate oligonucleotides to add the second mutation, F227L and L234I, respectively. The double mutants K101E/M184I and K101E/M184V were constructed using the previously generated K101E mutant and the appropriate oligonucleotides to add the second mutation, M184I and M184V, respectively. The double mutants E138K/M184I and E138K/M184V were constructed using the previously generated E138K mutant and the appropriate oligonucleotides for the second mutation, M184I and M184V, respectively. The triple mutant V106A/F227L/L234I was made using the previously generated V106A/F227L double mutant and the appropriate oligonucleotides for the third mutation, L234I. The triple mutant V106A/G190A/F227L was constructed in a series of steps using the previously generated V106A mutant and the appropriate oligonucleotides for the second mutation, G190A, to generate the double mutant V106A/G190A, and then the triple mutant was made using double mutant V106A/G190A and oligonucleotides for the third mutation, F227L. The DNA sequence of each construct was verified by DNA sequence determination. The sequences encoding the mutant RTs were then subcloned into pNLNgoMIVR-ΔEnv.LUC (between the KpnI and SalI sites) to produce the mutant HIV-1 constructs. These DNA sequences were also checked independently by DNA sequence determination.
(§3) 10.1186/s12977-016-0244-2 The IC50 values (nM) of RPV and the RPV analogs were determined against the NNRTI resistant mutants were measured by using a single round infection assay, n = 4. The concentrations (nM) are measured by reductions in luciferase reporter activity followed by the standard deviations. […]

HIV-1 RT mutant G190A = experiment: single round infection assay, G190A; format: cell-based; conditions: Human immunodeficiency virus 1
Procedure: as §1, §2, §3

[1] = tested on: HIV-1 RT mutant E138K/M184V; experiment: single round infection assay, E138K/M184V; format: cell-based; conditions: for fold-change of IC50 of the mutant relative to WT: E138K/M184V vs WT; for IC50: ± SD, n=4
Procedure: as §1, §2, §3

[2] = tested on: HIV-1 RT mutant K103N/P225H; experiment: single round infection assay, K103N/P225H; format: cell-based; conditions: for IC50: Human immunodeficiency virus 1; for fold-change of IC50 of the mutant relative to WT: K103N/P225H vs WT
Procedure: as §1, §2, §3

WT HIV-1 = conditions: previous study; cited from earlier work
[3] = tested on: HIV-1 RT mutant L100I/K103N; experiment: single round infection assay, L100I/K103N; format: cell-based; conditions: for fold-change of IC50 of the mutant relative to WT: L100I/K103N vs WT; for IC50: ± SD, n=4, limit of detection 100 nM
Procedure: as §1, §2, §3

HIV-1 RT mutant Y181C = tested on: HIV-1 RT mutant Y181C; design: method as in PMID 23217210; conditions: previous study; cited from earlier work
HIV-1 RT mutant G190S = experiment: single round infection assay, G190S; format: cell-based; conditions: Human immunodeficiency virus 1
Procedure: as §1, §2, §3

HIV-1 RT mutant K101E = experiment: single round infection assay, K101E; format: cell-based; conditions: for IC50: ± SD, n=4; for fold-change of IC50 of the mutant relative to WT: K101E vs WT
Procedure: as §1, §2, §3

[4] = tested on: HIV-1 RT mutant K101E/M184V; experiment: single round infection assay, K101E/M184V; format: cell-based; conditions: for fold-change of IC50 of the mutant relative to WT: K101E/M184V vs WT
Procedure: as §1, §2, §3

[5] = tested on: HIV-1 RT mutant V106A/F227L/L234I; experiment: single round infection assay, V106A/F227L/L234I; format: cell-based; conditions: V106A/F227L/L234I vs WT
Procedure: as §1, §2, §3

HIV-1 RT mutant E40K = experiment: single round infection assay, E40K; format: cell-based
Procedure: as §1, §2, §3

HIV-1 RT mutant V106A = experiment: single round infection assay, V106A; format: cell-based; conditions: Human immunodeficiency virus 1, V106A (selected by DOR); ± SD, n=4
Procedure: as §1, §2, §3

[6] = Human immunodeficiency virus 1, E138K
[7] = Human immunodeficiency virus 1, E138K/M184V
[8] = Human immunodeficiency virus 1, K101E
[9] = Human immunodeficiency virus 1, L100I/K103N

| Structure (SMILES) | fold-change of IC50 of the mutant relative to WT (HIV-1 RT mutant E138K) | IC50 (HIV-1 RT mutant E138K; E138K) | IC50 (HIV-1 RT mutant E138K; [6]) | IC50 (HIV-1 RT mutant G190A) | fold-change of IC50 of the mutant relative to WT [1] | IC50 ([1]; E138K/M184V) | IC50 [1, 7] | IC50 [2] | fold-change of IC50 of the mutant relative to WT [2] | IC50 (WT HIV-1) | fold-change of IC50 of the mutant relative to WT [3] | IC50 (HIV-1 RT mutant Y181C) | IC50 (HIV-1 RT mutant G190S) | IC50 (HIV-1 RT mutant K101E; [8]) | fold-change of IC50 of the mutant relative to WT (HIV-1 RT mutant K101E) | IC50 (HIV-1 RT mutant K101E; K101E) | fold-change of IC50 of the mutant relative to WT [4] | fold-change of IC50 of the mutant relative to WT [5] | IC50 [3, 9] | other results |
| --- | --- | --- | --- | --- | --- | --- | --- | --- | --- | --- | --- | --- | --- | --- | --- | --- | --- | --- | --- | --- |
| Cc1cc(/C=C/C#N)cc(C)c1Nc1nc(Nc2ccc(C#N)cc2)ncc1N [compound 7] | 2 | 1.6 ± 0.07 nM | < 2.5 nM | 0.3 nM | 3 | 2.4 ± 0.2 nM | < 2.5 nM | 1.1 ± 0.25 nM | < 2 | < 7 nM | 2 | < 7 nM | 0.4 ± 0.07 nM | < 2.5 nM | 3 | 2.3 ± 1.2 nM | – | – | – | – |
| Cc1cc(/C=C/C#N)cc(C)c1Nc1nc(Nc2ccc(C#N)cc2)ncc1[N+](=O)[O-] [compound 6] | 3 | 1.4 ± 0.3 nM | < 2.5 nM | 0.2 ± 0.09 nM | 3 | 1.63 ± 0.08 nM | < 2.5 nM | 0.8 ± 0.06 nM | < 2 | < 7 nM | 4 | < 7 nM | 0.2 ± 0.09 nM | < 2.5 nM | 5 | 2.6 ± 0.96 nM | 2 | 2 | – | fold-change of IC50 of the mutant relative to WT (HIV-1 RT mutant E40K; E40K vs WT): 2 |
| Cc1cc(/C=C/C#N)cc(C)c1Nc1ncc2ncn(-c3ccc(C#N)cc3)c2n1 [compound 26] | 4 | – | 28.8 ± 1.1 nM | 2.2 nM | < 2 | – | 13.2 ± 2.3 nM | 12.9 nM | < 2 | – | – | – | 2.1 nM | 56.1 ± 4.1 nM | 7 | – | < 2 | 5 | > 100 nM | IC50 ([4]; Human immunodeficiency virus 1, K101E/M184V, ± SD, n=4): 9.1 ± 0.1 nM; IC50 (HIV-1 RT mutant V106A): 4.9 ± 1.3 nM; IC50 (HIV-1 RT mutant E40K; Human immunodeficiency virus 1, E40K, ± SD, n=4): 4.2 ± 0.8 nM |
| Cc1cc(/C=C/C#N)cc(C)c1Nc1ncc([N+](=O)[O-])c(Nc2ccc(C#N)cc2)n1 [compound 8] | 2 | 3.4 nM | < 6 nM | 0.24 ± 0.04 nM | < 2 | – | – | 1.2 ± 0.33 nM | – | < 7 nM | 3 | < 7 nM | 0.17 ± 0.02 nM | 10.1 nM | 6 | – | – | < 2 | < 5.4 nM | IC50 ([3]; L100I/K103N): 5.4 ± 0.35 nM |
